Results reported in paper PMC11206245 (Pharmaceuticals, 2024).
In brackets after ≈: the same amount, converted by molar mass. Like-named read-outs stand apart in the source and are kept apart here.

How the values were obtained:
[1] = cited from earlier work
healthy dogs = assay: Study B: safety and toxicity, side and adverse effects, plasma biochemistry; assay type: in vivo
Procedure: (§1) Study B involved 9 healthy dogs (8 females and 1 male), including the 4 females from Study A after wash-out and upon confirmation of regular laboratory evaluations. […] Tolerability evaluations were performed via clinical examinations and blood sampling for laboratory evaluation after each treatment. For toxicity assessments, 4, 6, and 8 h after the final administration, the animals were euthanized for tissue collection and histopathological evaluation.
Hemograms were performed following blood collection.

[2] = design: method as in PMID 22124669, PMID 20618337; settings: humans; cited from earlier work
[3] = Study B multiple administrations of 150 mg/m^2: 17-AAG pharmacokinetics in plasma (HPLC); assay type: in vivo, dogs; settings: dog, iv; for AUC(0-t) / Cmax / half-life: both sexes, plasma, dogs, mean ± SD; for AUC(0-t): 150 mg/m2, AUC 0–8 h, Study B; for Cmax / half-life: 150 mg/m2, Study B; for half-life: read-out: t ½ (converted); for Clearance / DV (distribution volume): in vivo
Procedure: as §1
In Studies A and B, an intravenous catheter was placed in the cephalic vein of each animal’s right and left anterior limbs. […] Under both protocols, blood samples were centrifuged at 1500× g at 4 °C for 10 min.
For the mobile phase, acetonitrile (ACN, J.T.Baker®, Philadelphia, PA, USA) and water with 1% acetic acid (J.T.Baker®)were used. Briefly, aliquots of 200 µL of plasma or 100 µL of subcutaneous interstitial liquid were placed in a 1.5 mL microcentrifuge tube. Subsequently, 600 µL and 300 µL of ACN were added to all plasma and subcutaneous interstitial liquid samples, respectively. The mixture was vortexed for 30 s, followed by centrifugation at 3400× g for 10 min. Next, 500 µL of the plasma supernatant and 250 µL of the subcutaneous interstitial fluid were pipetted into a new vial. […] Data acquisition and processing were performed using LabSolutions software (Version 5.3).
Cmax, half-life (t ½), distribution volume, and clearance were also determined. Data were analyzed in Excel and WinNonlin using a mono-compartmental model.

[4] = design: method as in earlier work; settings: mice with MCF-7 breast tumors, 40 mg/kg intravenous dose; ref National Institute of Cancer's guide, https://dtp.cancer.gov/timeline/posters/AGG_Geldamycin.pdf; cited from earlier work
[5] = Study B, third day, out of nine dogs
[6] = 1st of three IV administrations of 150 mg/m^2 at 48 h intervals
[7] = 2nd of three IV administrations of 150 mg/m^2 at 48 h intervals
[8] = 3rd of three IV administrations of 150 mg/m^2 at 48 h intervals

C=CCNC1=C2C[C@@H](C)C[C@H](OC)[C@H](O)[C@@H](C)/C=C(\C)[C@H](OC(N)=O)[C@@H](OC)/C=C\C=C(/C)C(=O)NC(=CC1=O)C2=O [17-AAG, 17-(allylamino)-17-demethoxygeldanamycin]
Solubility in Dimethyl Sulfoxide (DMSO) ([1]; according to PubChem): 100 mM (≈ 58.6 mg/mL) | Solubility in ethanol ([1]; according to PubChem): 10 mM (≈ 5.86 mg/mL) | Aqueous solubility ([1]; aqueous): approximately 0.01 mg/mL | Animals with elevated transaminase levels persisting (healthy dogs; Study B, by the fourth day): only one animal | Animals with bloody diarrhea (healthy dogs; Study B, fourth day): one animal | Animals with pale feces (healthy dogs; Study B, fourth day): seven out of nine | Dogs with elevated levels of ALT and AST (healthy dogs; Study B, multiple doses of 150 mg/m^2, three out of nine): 33% | Animals with pasty feces (healthy dogs; Study B, second day after administering the second dose): two out of nine | Animals with bloody diarrhea (healthy dogs; [5]): one | Animals with diarrhea with liquid feces (healthy dogs; [5]): three | Animals with pasty feces (healthy dogs; [5]): two | Dogs presenting elevated levels of ALT, AST and GGT (healthy dogs; Study B, three IV doses of 150 mg/m^2): 3/9 | Animals with skin reaction with temporarily erupted hairs (healthy dogs; dog, in vivo): only one animal | Animals presenting adverse reactions: ALT (healthy dogs; dog, in vivo, iv): 3 (33%) n (%) | Animals presenting adverse reactions: AST (healthy dogs; dog, in vivo, iv): 3 (33%) n (%) | Animals presenting adverse reactions: bloody diarrhea (healthy dogs; dog, in vivo, iv): 1 (11%) n (%) | Animals presenting adverse reactions: diarrhea (liquid feces) (healthy dogs; dog, in vivo, iv): 3 (33%) n (%) | Animals presenting adverse reactions: erythema (healthy dogs; dog, in vivo, iv): 0 n (%) | Animals presenting adverse reactions: hyperthermia (healthy dogs; dog, in vivo, iv): 0 n (%) | Animals presenting adverse reactions: nausea (healthy dogs; dog, in vivo, iv): 0 n (%) | Animals presenting adverse reactions: pasty feces (healthy dogs; dog, in vivo, iv): 9 (100%) n (%) | Animals presenting adverse reactions: pruritus (healthy dogs; dog, in vivo, iv): 0 n (%) | Animals presenting adverse reactions: vomit (healthy dogs; dog, in vivo, iv): 0 n (%) | half-life [2]: 180 to 360 min | AUC(0-t) [3, 6]: 6350 ± 432 ng·h/mL | AUC(0-t) [3, 7]: 7050 ± 382 ng·h/mL | AUC(0-t) [3, 8]: 6850 ± 69 ng·h/mL | Cmax [3, 6]: 6310 ± 2200 ng/mL | Cmax [3, 7]: 5910 ± 1130 ng/mL | Cmax [3, 8]: 5250 ± 2780 ng/mL | half-life [3, 6]: 41.4 ± 13.2 min | half-life [3, 7]: 41.4 ± 14.4 min | half-life [3, 8]: 48.6 ± 21 min | Clearance ([3]; 1st administration): 0.023 ± 0.002 L/m^2/h | DV (distribution volume) ([3]; 1st administration): 0.029 ± 0.003 L/m^2 | Clearance ([3]; 2nd administration): 0.021 ± 0.001 L/m^2/h | DV (distribution volume) ([3]; 2nd administration): 0.030 ± 0.002 L/m^2 | Clearance ([3]; 3rd administration): 0.022 ± 0.002 L/m^2/h | DV (distribution volume) ([3]; 3rd administration): 0.033 ± 0.003 L/m^2 | maximum plasma half-life [4]: 264 min
